One may read the logP as a log measure of how a compound divides between an organic and an aqueous phase. Low readings indicate lower lipophilicity, high ones higher lipophilicity.

We go through 31 compounds from patent US9765049B2, “N-cycloalkyl-N-[(fusedphenyl)methylene]-(thio)carboxamide derivatives” (BAYER CROPSCIENCE AG, priority 2013, dated 2017).

Data set [1] in a line: log P by HPLC on reversed-phase column (C 18), EEC Directive 79/831 Annex V.A8. Type of data set: physicochemical. As to conditions: for logP: Table 1, 40° C. The protocol: In table 1, the log P values were determined in accordance with EEC Directive 79/831 Annex V.A8 by HPLC (High Performance Liquid Chromatography) on a reversed-phase column (C 18), using the method described below: Temperature: 40° C.; Mobile phases: 0.1% aqueous formic acid and acetonitrile; linear gradient from 10% acetonitrile to 90% acetonitrile. Calibration was carried out using unbranched alkan-2-ones (comprising 3 to 16 carbon atoms) with known log P values (determination of the log P values by the retention times using linear interpolation between two successive alkanones). lambda-max-values were determined using UV-spectra from 200 nm to 400 nm and the peak values of the chromatographic signals.

Data set [2] relates to Botrytis cinerea. The data set can be described thus: In vivo preventive test Botrytis cinerea (grey mould). As to conditions: gherkin plants. The protocol: (§1) Example B: In Vivo Preventive Test Botrytis cinerea (Grey Mould) [table] The active ingredients are made soluble and homogenized in a mixture of Dimethyl sulfoxide/Acetone/Tween®80 and then diluted in water to the desired concentration. The young plants of gherkin are treated by spraying the active ingredient prepared as described above. Control plants are treated only with an aqueous solution of Acetone/Dimethyl sulfoxide/Tween® 80. After 24 hours, the plants are contaminated by spraying the leaves with an aqueous suspension of Botrytis cinerea spores. The contaminated gherkin plants are incubated for 4 to 5 days at 17° C. and at 90% relative humidity.

Data set [3] concerns Septoria tritici. Description: In vivo preventive test on Septoria tritici (wheat). As to conditions: 500 ppm, wheat plants, preventive spray, evaluated 24 days after inoculation. The protocol: as §1, with “E:” for “B:”, “on Septoria tritici (Wheat)” for “Botrytis cinerea (Grey Mould)”, “wheat” for “gherkin”, “Septoria tritici” for “Botrytis cinerea”, “72 hours at 18° C. and at 100% relative humidity and then for 21” for “4 to 5”, “20°” for “17°”

Data set [4] relates to Sphaerotheca fuliginea. Description: In vivo preventive test on Sphaerotheca fuliginea (powdery mildew on cucurbits). As to conditions: 500 ppm, gherkin plants, preventive spray, evaluated 15 days after inoculation. The protocol: Example F: In Vivo Preventive Test on Sphaerotheca fuliginea (Powdery Mildew on Cucurbits) [table] The active ingredients are made soluble and homogenized in a mixture of Dimethyl sulfoxide/Acetone/Tween®80 and then diluted in water to the desired concentration. The young plants of gherkin are treated by spraying the active ingredient prepared as described above. Control plants are treated only with an aqueous solution of Acetone/Dimethyl sulfoxide/Tween® 80. After 24 hours, the plants are contaminated by spraying the leaves with an aqueous suspension of Sphaerotheca fuliginea spores.

The test system of data set [5] is Puccinia recondita. The data set can be described thus: In vivo preventive test on Puccinia recondita (brown rust on wheat). As to conditions: 500 ppm, wheat plants, preventive spray, evaluated 11 days after inoculation. The protocol:
Example C: In Vivo Preventive Test on Puccinia recondita (Brown Rust on Wheat) [table] The active ingredients are made soluble and homogenized in a mixture of Dimethyl sulfoxide/Acetone/Tween®80 and then diluted in water to the desired concentration. The young plants of wheat are treated by spraying the active ingredient prepared as described above. Control plants are treated only with an aqueous solution of Acetone/Dimethyl sulfoxide/Tween® 80. After 24 hours, the plants are contaminated by spraying the leaves with an aqueous suspension of Puccinia recondita spores.

The test system of data set [6] is Pyrenophora teres. Description: In vivo preventive test on Pyrenophora teres (net blotch on barley). As to conditions: 500 ppm, barley plants, preventive spray, evaluated 14 days after inoculation. The protocol:
Example D: In Vivo Preventive Test on Pyrenophora teres (Net Blotch on Barley) [table] The active ingredients are made soluble and homogenized in a mixture of Dimethyl sulfoxide/Acetone/Tween®80 and then diluted in water to the desired concentration. The young plants of barley are treated by spraying the active ingredient prepared as described above. Control plants are treated only with an aqueous solution of Acetone/Dimethyl sulfoxide/Tween® 80. After 24 hours, the plants are contaminated by spraying the leaves with an aqueous suspension of Pyrenophora teres spores.

For data set [7], the system named is Fusarium nivale (var. majus). The data set can be described thus: Efficacy against Fusarium nivale (var. majus) (wheat), curative test. Type of data set: in vivo. As to conditions: evaluated 5 days after inoculation. The protocol:
Example I: Efficacy Against Fusarium nivale (Var. Majus) (Wheat) [table] To produce a suitable preparation of active compound, 1 part by weight of active compound or active compound combination is mixed with the stated amounts of solvent and emulsifier, and the concentrate is diluted with water to the desired concentration. […] After the spray coating has dried on, the plants remain in a greenhouse under translucent incubation cloches at a temperature of approximately 10° C. and a relative atmospheric humidity of approximately 100%.

[8] abbreviates: reversed-phase HPLC column (C 18), Table 2 (amines of formula IIa), HPLC, 0.1% aqueous formic acid and acetonitrile, read-out: logP.
Where [9] appears, read: HPLC, 0.1% aqueous formic acid and acetonitrile.
The mark [10] stands for this setting: Table B, 500 ppm, preventive spray, evaluated 4 to 5 days after inoculation.
The mark [11] stands for this setting: reversed-phase HPLC column (C 18), Table 3 (aldehydes of formula IV), HPLC, 0.1% aqueous formic acid and acetonitrile, read-out: logP.

Molecules are shown by their SMILES. Read-outs that look alike come from different tables or passages of the source.

Regarding `O=Cc1cccc2c1C1CCC2C1=C(Cl)Cl` (stereo not shown) [IV.3, 9-(dichloromethylene)-1,2,3,4-tetrahydro-1,4-methanonaphthalene-5-carbaldehyde], the chromatographic logP in data set [1] was determined as 4.09.
For `Cn1cc(C(=O)N(Cc2cccc3c2CCCC3)C2CC2)c(C(F)F)n1` [CMP3, N-cyclopropyl-3-(difluoromethyl)-1-methyl-N-(5,6,7,8-tetrahydronaphthalen-1-ylmethyl)-1H-pyrazole-4-carboxamide, reference compound], the Efficacy in data set [2] (Table B2, dose 100 ppm) came out at 0%; in data set [2] (Table B2, dose 500 ppm), 0%.
On to `C1=CC2CC1c1cccc(CNC3CC3)c12` (stereo not shown) [IIa.2, N-(1,4-dihydro-1,4-methanonaphthalen-5-ylmethyl)cyclopropanamine], for which, in data set [1] (setting [8]), the chromatographic logP is 1.13.
`Cn1nc(C(F)F)c(C(=O)N(Cc2cccc3c2C2CCC3O2)C2CC2)c1F` (stereo not shown) [I.12] yielded a logP in data set [1] (setting [9]) of 2.55. The Efficacy in data set [2] (setting [10]) was determined as 99%; in data set [3], 100%; in data set [4], 100%; in data set [5] it was 89%.
On to `Cn1nc(C(F)F)c(C(=O)N(Cc2cccc3c2C2C=CC3O2)C2CC2)c1F` (stereo not shown) [I.14], for which the Efficacy is 75% in data set [6], 98% in data set [3] and 94% in data set [4]. Moreover, the logP in data set [1] (setting [9]) was 2.31.
Take `Cn1nc(C(F)F)c(C(=O)N(Cc2cccc3c2C2CCC3C2=C(Cl)Cl)C2CC2)c1Cl` (stereo not shown) [I.06]: the Efficacy in data set [6] came out at 71%; in data set [3], 71%; in data set [4], 95%. In data set [1] (setting [9]), this compound registered a logP of 4.66.
In the case of `Cn1cc(C(=O)N(Cc2cccc3c2C2C=CC3C2)C2CC2)c(C(F)F)n1` (stereo not shown) [I.03], the values for the Efficacy in data set [6] and in data set [4] were 88% and 98%, respectively. This compound also registered a logP in data set [1] (setting [9]) of 3.19.
As to `Cn1nc(C(F)F)c(C(=S)N(Cc2cccc3c2C2C=CC3O2)C2CC2)c1F` (stereo not shown) [I.19], the logP in data set [1] (setting [9]) worked out at 3.04.
On the same count and under the same terms, next, `Cc1cc(C(=O)N(Cc2cccc3c2C2CCC3O2)C2CC2)c(C)o1` (stereo not shown) [I.22]: 3.04.
For `O=Cc1cccc2c1C1C=CC2C1` (stereo not shown) [IV.2, 1,4-dihydro-1,4-methanonaphthalene-5-carbaldehyde], the chromatographic logP in data set [1] (setting [11]) stood at 2.73.
Take `Cn1cc(C(=O)N(Cc2cccc3c2C2C=CC3O2)C2CC2)c(C(F)(F)F)c1` (stereo not shown) [I.17]: the lipophilicity (logP) in data set [1] (setting [9]) came to 2.70.
Consider `Cn1nc(C(F)F)c(C(=O)N(Cc2cccc3ccccc23)C2CC2)c1F` [CMP1, N-cyclopropyl-3-(difluoromethyl)-5-fluoro-1-methyl-N-(1-naphthylmethyl)-1H-pyrazole-4-carboxamide, reference compound], for which the Efficacy turned out to be 10% in data set [2] (Table B2, dose 100 ppm) and 70% in data set [2] (Table B2, dose 500 ppm).
As for `O=Cc1cccc2c1C1C=CC2O1` (stereo not shown) [IV.5, 1,4-dihydro-1,4-epoxynaphthalene-5-carbaldehyde], the chromatographic logP in data set [1] (setting [11]) amounted to 1.5.
Compound `O=C(c1ccsc1Br)N(Cc1cccc2c1C1C=CC2O1)C1CC1` (stereo not shown) [I.21] came in with a logP in data set [1] (setting [9]) of 2.96.
In data set [1] (setting [9]), `Cc1nc(C(F)F)c(C(=O)N(Cc2cccc3c2C2C=CC3O2)C2CC2)s1` (stereo not shown) [I.18] had a logP of 2.51.
As for `C1=CC2OC1c1cccc(CNC3CC3)c12` (stereo not shown) [IIa.5, N-(1,4-dihydro-1,4-epoxynaphthalen-5-ylmethyl)cyclopropanamine], in data set [1] (setting [8]), the chromatographic logP is 0.13.
On to `O=Cc1cccc2c1C1CCC2C1` (stereo not shown) [IV.1, 1,2,3,4-tetrahydro-1,4-methanonaphthalene-5-carbaldehyde], for which the chromatographic logP in data set [1] (setting [11]) stood at 3.13.
As for `Cc1nn(C)c(F)c1C(=O)N(C1CC1)C(C)c1cccc2c1CCCC2` (stereo not shown) [CMP4, N-cyclopropyl-5-fluoro-1,3-dimethyl-N-[1-(5,6,7,8-tetrahydronaphthalen-1-yl)ethyl]-1H-pyrazole-4-carboxamide], the Efficacy in data set [7] (dose 250 ppm) came out at 29%; in data set [7] (dose 500 ppm), 57%.
Consider `Cn1nc(C(F)F)c(C(=O)N(Cc2cccc3c2C2C=CC3C2)C2CC2)c1Cl` (stereo not shown) [I.05], for which, in data set [1] (setting [9]), the logP is recorded as 3.70. Besides, the figures for the Efficacy in data set [3], in data set [4] and in data set [5] were 81%, 72% and 94%, respectively.
In the case of `Cc1cc(C(=O)N(Cc2cccc3c2C2C=CC3O2)C2CC2)c(C)o1` (stereo not shown) [I.16], the logP in data set [1] (setting [9]) turned out to be 2.82. In data set [3], the Efficacy turned out to be 81%.
Consider `c1cc(CNC2CC2)c2c(c1)C1CCC2O1` (stereo not shown) [IIa.4, N-(1,2,3,4-tetrahydro-1,4-epoxynaphthalen-5-ylmethyl)cyclopropanamine], for which the chromatographic logP in data set [1] (setting [8]) was determined as 0.45.
In data set [1] (setting [9]), `Cn1nc(C(F)F)c(C(=S)N(Cc2cccc3c2C2C=CC3O2)C2CC2)c1Cl` (stereo not shown) [I.20] displayed a log partition coefficient (logP) of 3.17.
Take `O=Cc1cccc2c1C1CCC2O1` (stereo not shown) [IV.4, 1,2,3,4-tetrahydro-1,4-epoxynaphthalene-5-carbaldehyde]: in data set [1] (setting [11]), the chromatographic logP is 1.66.
As to `c1cc(CNC2CC2)c2c(c1)C1CCC2C1` (stereo not shown) [IIa.1, N-(1,2,3,4-tetrahydro-1,4-methanonaphthalen-5-ylmethyl)cyclopropanamine], the chromatographic logP in data set [1] (setting [8]) came to 1.31.
On to `Cn1nc(C(F)F)c(C(=O)N(Cc2cccc3c2C2C=CC3O2)C2CC2)c1Cl` (stereo not shown) [I.13], for which the logP in data set [1] (setting [9]) is on record as 2.42.
In the case of `CC1CCc2cccc(C(C)N(C(=O)c3c(C(F)F)nn(C)c3F)C3CC3)c2C1` (stereo not shown) [50 from WO-2010/130767, N-cyclopropyl-3-(difluoromethyl)-5-fluoro-1-methyl-N-[1-(7-methyl-5,6,7,8-tetrahydronaphthalen-1-yl)ethyl]-1H-pyrazole-4-carboxamide], the Efficacy in data set [7] (dose 250 ppm) and in data set [7] (dose 500 ppm) was 67% in each case.
With `Cn1cc(C(=O)N(Cc2cccc3c2C2C=CC3O2)C2CC2)c(C(F)F)n1` (stereo not shown) [I.15], the logP in data set [1] (setting [9]) stood at 2.05. The compound also returned an Efficacy in data set [4] of 72%.
Turning to `Cc1nn(C)c(F)c1C(=O)N(Cc1cccc2c1CCCC2)C1CC1` [CMP2, N-cyclopropyl-5-fluoro-1,3-dimethyl-N-(5,6,7,8-tetrahydronaphthalen-1-ylmethyl)-1H-pyrazole-4-carboxamide, reference compound], the Efficacy came to 0% in data set [2] (Table B2, dose 100 ppm) and 35% in data set [2] (Table B2, dose 500 ppm).
For `Cc1nn(C)c(F)c1C(=O)N(C1CC1)C(C)c1cccc2c1CCC(C)(C)C2` (stereo not shown) [CMP5, N-cyclopropyl-N-[1-(6,6-dimethyl-5,6,7,8-tetrahydronaphthalen-1-yl)ethyl]-5-fluoro-1,3-dimethyl-1H-pyrazole-4-carboxamide], the Efficacy came to 44% in data set [7] (dose 250 ppm) and 56% in data set [7] (dose 500 ppm).
In data set [1] (setting [9]), `Cn1cc(C(=S)N(Cc2cccc3c2C2CCC3C2=C(Cl)Cl)C2CC2)c(C(F)F)n1` (stereo not shown) [I.10] registered a logP of 4.83. Besides, the Efficacy in data set [2] (setting [10]) is given as 100%; in data set [3], 100%; in data set [4] it was 100%; in data set [5], 88%.
`ClC(Cl)=C1C2CCC1c1c(CNC3CC3)cccc12` (stereo not shown) [IIa.3, N-{[9-(dichloromethylene)-1,2,3,4-tetrahydro-1,4-methanonaphthalen-5-yl]methyl}-cyclopropanamine]: the chromatographic logP in data set [1] was determined as 1.95.
